pKi: −log10 of the molar value. Each block holds one compound with its values, some of them ahead of it.
Key:
[1] = biological target: GABA-A receptor; anion channel (Rattus norvegicus) (UniProt O09028+P15431+P18506+P18508+P19969+P20236+P23574+P23576+P28471+P28473+P30191+P62813+P63079+P63138+Q91ZM7+Q9ES14); assay: Receptor occupancy in vivo by displacement of [3H]Ro 15-1788 binding from rat brain GABAA receptor at 3 mg/kg, ip; type: functional, organism-based; parameters: dose 3 mg/kg
[2] = Binding affinity to GABA alpha5 receptor; parameters: species or system Homo sapiens
[3] = biological target: GABA A receptor alpha-1/beta-1/gamma-2 (Homo sapiens) (UniProt P14867+P18507+P18505); assay: Efficacy against human GABA alpha-1 receptor expressed in mouse fibroblast L(tk-) cells by whole cell patch clamp method; type: functional, cell-based
[4] = Efficacy against human GABA alpha-2 receptor expressed in mouse fibroblast L(tk-) cells by whole cell patch clamp method; type: functional
[5] = Efficacy against human GABA alpha-3 receptor expressed in mouse fibroblast L(tk-) cells by whole cell patch clamp method; type: functional
[6] = Efficacy against human GABA alpha-5 receptor expressed in mouse fibroblast L(tk-) cells by whole cell patch clamp method; type: functional
[7] = Half life in rat; type: ADME, organism-based; settings: in vivo
[8] = Clearance in rat; type: ADME, organism-based; settings: in vivo
[9] = Half life in dog; type: ADME, organism-based, Canis lupus familiaris; settings: in vivo
[10] = Clearance in dog; type: ADME, organism-based, Canis lupus familiaris; settings: in vivo
[11] = Half life in rhesus; type: ADME, organism-based, Macaca mulatta; settings: rhesus monkey, in vivo
[12] = Clearance in rhesus; type: ADME, organism-based, Macaca mulatta; settings: rhesus monkey, in vivo
[13] = Oral bioavailability in rhesus; type: ADME, organism-based, Macaca mulatta; settings: rhesus monkey, in vivo

Compound: Cn1ncnc1COc1nn2c(-c3cc(CO)on3)nncc2c1C(C)(C)C
Activity [1]: 12% | pKi [2]: 8.96 | Efficacy [3]: -11% | Efficacy [4]: -1% | Efficacy [5]: -15% | Efficacy [6]: -52%

Compound: Cn1ncnc1COc1nn2c(-c3cc(CO)on3)nnc(O)c2c1C(C)(C)C
pKi [2]: 6.43

Compound: Cc1cc(-c2nncc3c(C(C)(C)CO)c(OCc4ncnn4C)nn23)no1
Activity [1]: 21% | pKi [2]: 8.03 | Efficacy [3]: -41% | Efficacy [4]: -23% | Efficacy [5]: -32% | Efficacy [6]: -40%

Compound: Cn1ncnc1COc1nn2c(-c3cc(CO)on3)nncc2c1C(C)(C)CO
Activity [1]: 8% | pKi [2]: 7.68 | Efficacy [3]: -45% | Efficacy [4]: -31% | Efficacy [5]: -39% | Efficacy [6]: -44%

Now from value to compound, other results behind:

pKi [2]: < 6.18
Compound: Cc1cc(-c2nnc(O)c3c(C(C)(C)CO)c(OCc4ncnn4C)nn23)no1

Activity [1]: > 95% | pKi [2]: 8.85 | Efficacy [3]: -16% | half-life [7]: 30 min | clearance [8]: 27 mL/min/kg | half-life [9]: 30 min | clearance [10]: 39 mL/min/kg | half-life [11]: 18 min | clearance [12]: 33 mL/min/kg | bioavailability [13]: < 2%
Compound: Cc1cc(-c2nncc3c(C(C)(C)C)c(OCc4ncnn4C)nn23)no1
Efficacy [4]: 6% | Efficacy [5]: -9% | Efficacy [6]: -55%

pKi [2]: 6.15 | Efficacy [3]: 1%
Compound: Cc1cc(-c2nnc(O)c3c(C(C)(C)C)c(OCc4ncnn4C)nn23)no1
Efficacy [4]: 0% | Efficacy [5]: -8% | Efficacy [6]: -47%

Source: ChEMBL document CHEMBL1149460, “Pharmacokinetics and metabolism studies on (3-tert-butyl-7-(5-methylisoxazol-3-yl)-2-(1-methyl-1H-1,2,4-triazol-5-ylmethoxy) pyrazolo[1,5-d][1,2,4]triazine, a functionally selective GABA(A) alpha5 inverse agonist for cognitive dysfunction” (Bioorg Med Chem Lett, 2006)
